Data reported in PubChem BioAssay AID1963973 (Molecular Pharmacology Branch, DTP, NCI, 2024).

System: 883617-216-R-J1-PDC tumor spheroids, viability
Test: Anticancer human tumor 883617-216-R-J1-PDC patient-derived bladder carcinoma cell line growth inhibition [PI3K]
Settings: spheroids with HUVEC and MSC; for IC50: curve of first compound; for viability, T/C: stronger effect = lower value; active means viability on the fitted dose curve at most 10% of control; inactive means the rest
Procedure, shortened: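 We assembled tumor spheroids that included a stromal compartment of HUVEC and MSCs, then exposed them to targeted agents alone and together with PI3K pathway inhibitors. Concentration series descended by half-log from clinically achievable Cmax levels. Viability served as the endpoint.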

[1] = second compound 0.0316 µM, first compound 0.0316 µM
[2] = second compound 0.0316 µM, first compound 0.1 µM
[3] = second compound 0.0316 µM, first compound 0.316 µM
[4] = second compound 0.0316 µM, first compound 1 µM
[5] = second compound 0.0316 µM, first compound 3.16 µM
[6] = second compound 0.0316 µM, first compound 10 µM
[7] = second compound 0.1 µM, first compound 0.0316 µM
[8] = second compound 0.1 µM, first compound 0.1 µM
[9] = second compound 0.1 µM, first compound 0.316 µM
[10] = second compound 0.1 µM, first compound 1 µM
[11] = second compound 0.1 µM, first compound 3.16 µM
[12] = second compound 0.1 µM, first compound 10 µM
[13] = second compound 0.316 µM, first compound 0.0316 µM
[14] = second compound 0.316 µM, first compound 0.1 µM
[15] = second compound 0.316 µM, first compound 0.316 µM
[16] = second compound 0.316 µM, first compound 1 µM
[17] = second compound 0.316 µM, first compound 3.16 µM
[18] = second compound 0.316 µM, first compound 10 µM
[19] = second compound 1 µM, first compound 0.0316 µM
[20] = second compound 1 µM, first compound 0.1 µM
[21] = second compound 1 µM, first compound 0.316 µM
[22] = second compound 1 µM, first compound 1 µM
[23] = second compound 1 µM, first compound 3.16 µM
[24] = second compound 1 µM, first compound 10 µM
[25] = second compound 3.16 µM, first compound 0.0316 µM
[26] = second compound 3.16 µM, first compound 0.1 µM
[27] = second compound 3.16 µM, first compound 0.316 µM
[28] = second compound 3.16 µM, first compound 1 µM
[29] = second compound 3.16 µM, first compound 3.16 µM
[30] = second compound 3.16 µM, first compound 10 µM
[31] = second compound 10 µM, first compound 0.0316 µM
[32] = second compound 10 µM, first compound 0.1 µM
[33] = second compound 10 µM, first compound 0.316 µM
[34] = second compound 10 µM, first compound 1 µM
[35] = second compound 10 µM, first compound 3.16 µM
[36] = second compound 10 µM, first compound 10 µM
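Further: spheroids exposed to agents for 7 days before the viability read.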

CC(Cn1ccc(-c2ccc(C#N)c(Cl)c2)n1)NC(=O)c1cc(C(C)O)[nH]n1 (centres undefined) + CC(Nc1ncnc2nc[nH]c12)c1cc2cccc(Cl)c2c(=O)n1-c1ccccc1
< 0.0316 µM: IC50 (second compound 10 µM)
> 10 µM: IC50 (second compound 0.0316 µM) | IC50 (second compound 0.1 µM) | IC50 (second compound 0.316 µM) | IC50 (second compound 1 µM) | IC50 (second compound 3.16 µM)
inactive: viability, T/C [1] 98.1% | viability, T/C [2] 104% | viability, T/C [3] 90.5% | viability, T/C [4] 103% | viability, T/C [5] 103% | viability, T/C [6] 95.3% | viability, T/C [7] 94.5% | viability, T/C [8] 84.7% | viability, T/C [9] 84.6% | viability, T/C [10] 100% | viability, T/C [11] 95.3% | viability, T/C [12] 97% | viability, T/C [13] 95.8% | viability, T/C [14] 92.9% | viability, T/C [15] 90.7% | viability, T/C [16] 97.9% | viability, T/C [17] 95.5% | viability, T/C [18] 90.7% | viability, T/C [19] 78.3% | viability, T/C [20] 77.1% | viability, T/C [21] 78.3% | viability, T/C [22] 86.9% | viability, T/C [23] 90.8% | viability, T/C [24] 76.8% | viability, T/C [25] 76.7% | viability, T/C [26] 70.9% | viability, T/C [27] 61.2% | viability, T/C [28] 61% | viability, T/C [29] 68.1% | viability, T/C [30] 74.2% | viability, T/C [31] 52.9% | viability, T/C [32] 43.1% | viability, T/C [33] 44.6% | viability, T/C [34] 51.4% | viability, T/C [35] 43.7% | viability, T/C [36] 50%

C=CC(=O)N1CCN(c2nc(=O)n(-c3c(C)ccnc3C(C)C)c3nc(-c4c(O)cccc4F)c(F)cc23)C(C)C1 (centres undefined) + CC(Nc1ncnc2nc[nH]c12)c1cc2cccc(Cl)c2c(=O)n1-c1ccccc1
> 10 µM: IC50 (second compound 0.0316 µM) | IC50 (second compound 0.1 µM)
< 0.0316 µM: IC50 (second compound 0.316 µM) | IC50 (second compound 3.16 µM) | IC50 (second compound 10 µM)
0.0739 µM: IC50 (second compound 1 µM)
inactive: viability, T/C [1] 59.4% | viability, T/C [2] 41.1% | viability, T/C [3] 49.5% | viability, T/C [4] 55.3% | viability, T/C [5] 59.9% | viability, T/C [6] 64.2% | viability, T/C [7] 60.9% | viability, T/C [8] 46.9% | viability, T/C [9] 48.4% | viability, T/C [10] 57.9% | viability, T/C [11] 63.4% | viability, T/C [12] 62% | viability, T/C [13] 55.9% | viability, T/C [14] 43.4% | viability, T/C [15] 40.8% | viability, T/C [16] 59.1% | viability, T/C [17] 48.7% | viability, T/C [18] 54.8% | viability, T/C [19] 63.3% | viability, T/C [20] 45.2% | viability, T/C [21] 43% | viability, T/C [22] 45.7% | viability, T/C [23] 37.1% | viability, T/C [24] 45.6% | viability, T/C [25] 43.2% | viability, T/C [26] 36.2% | viability, T/C [27] 27.2% | viability, T/C [28] 37.5% | viability, T/C [29] 37.6% | viability, T/C [30] 45.4% | viability, T/C [31] 26.1% | viability, T/C [32] 20.1% | viability, T/C [33] 19.6% | viability, T/C [34] 21.9% | viability, T/C [35] 28.8% | viability, T/C [36] 31.7%
